Values of other authors as cited in patent US20210228408A1, “Glaucoma Treatment Via Intracameral Ocular Implants” (Allergan, Inc., priority 2015, published 2021).

What was measured:
[1] = target: Cloned Human Ciliary Body FP Prostaglandin Receptor (Homo sapiens, UniProt P43088); details: read-out: Functional Potency, EC50
[2] = target: prostaglandin F (FP) receptor (Homo sapiens, UniProt P43088); details: read-out: Most potent measured EC50 on FP receptor
Sequence of prostaglandin F (FP) receptor (P43088 whole entry): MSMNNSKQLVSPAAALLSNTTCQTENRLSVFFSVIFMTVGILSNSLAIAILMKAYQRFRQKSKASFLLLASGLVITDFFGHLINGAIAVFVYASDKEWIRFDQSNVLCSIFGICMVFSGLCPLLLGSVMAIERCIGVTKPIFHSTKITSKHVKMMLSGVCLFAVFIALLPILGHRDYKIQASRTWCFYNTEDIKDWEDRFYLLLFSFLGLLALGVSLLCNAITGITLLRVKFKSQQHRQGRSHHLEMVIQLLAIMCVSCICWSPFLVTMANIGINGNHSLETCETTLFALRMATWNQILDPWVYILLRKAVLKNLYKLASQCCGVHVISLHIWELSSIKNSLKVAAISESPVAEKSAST

Sequence of Cloned Human Ciliary Body FP Prostaglandin Receptor (P43088 whole entry): as above

SMILES | EC50 [1] [nM] | EC50 [2] [nM]
O=C(O)CCC/C=C\C[C@@H]1[C@@H](/C=C/[C@@H](O)CCc2ccccc2)[C@H](O)C[C@@H]1O [Bimatoprost acid] | 5.8 | ~3.3
O=C(O)CCC/C=C\C[C@@H]1[C@@H](/C=C/[C@@H](O)COc2cccc(C(F)(F)F)c2)[C@H](O)C[C@@H]1O [Travoprost acid] | 3.2 | 1.4
CC(C)OC(=O)CCC/C=C\C[C@@H]1[C@@H](/C=C/[C@@H](O)COc2cccc(C(F)(F)F)c2)[C@H](O)C[C@@H]1O [Travoprost, propan-2-yl 7-[3,5-dihydroxy-2-[3-hydroxy-4-[3-(trifluoromethyl)phenoxy]-but-1-enyl]-cyclopentyl]hept-5-enoate] |  | ~1.4
